Data on 21 molecules can be found in US12655156B2, “Oxadiazolopyrazines and oxadiazolopyridines useful as mitochondrial uncouplers” (Virginia Tech Intellectual Properties, Inc., priority 2018, dated 2026).

The test system of the first assay is whole cells (NMuLi, C2C12, and L6 cells, isolated cardiomyocytes, human primary fibroblasts). Put plainly: Oxygen consumption rate (OCR) in whole cells, Seahorse XF-24 Flux Analyzer. It counts as cell-based. The note with it: increase in OCR; binned EC50 values. In short, it runs like this:
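NMuLi, C2C12 and L6 cells (3.5×10^4/well), cardiomyocytes (4×10^4/well) and human primary fibroblasts (1.1×10^4/well) adhered 24 h, then equilibrated 30 min at 37° C in unbuffered DMEM with pyruvate and glutamine, pH 7.4. Compounds injected during run; OCR read over 2 min periods. EC50 for OCR increase, binned.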
For the molecule `Oc1nc2nonc2nc1Nc1ccc(-c2ccc(F)cc2)cc1` [1-112, 6-((4′-fluoro-[1,1′-biphenyl]-4-yl)amino)-[1,2,5]oxadiazolo[3,4-b]pyrazin-5-ol], the EC50 was ≤ 5 µM.

Molecule `Oc1nc2nonc2nc1Nc1ccc(I)cc1` [1-19, 6-((4-Iodophenyl)amino)-[1,2,5]oxadiazolo[3,4-b]pyrazin-5-ol] displayed an EC50 of 5 to 20 µM. As for `Oc1nc2nonc2nc1Nc1ccc(SC(F)(F)F)cc1` [1-25, 6-((4-((Trifluoromethyl)thio)phenyl)amino)-[1,2,5]oxadiazolo[3,4-b]pyrazin-5-ol], the EC50 is ≤ 5 µM. As for `Oc1nc2nonc2nc1Nc1cccc(-c2cccc(C(F)(F)F)c2)c1` [1-135, 6-((3′-(trifluoromethyl)-[1,1′-biphenyl]-3-yl)amino)-[1,2,5]oxadiazolo[3,4-b]pyrazin-5-ol], the EC50 is ≤ 5 µM. For `CC12CC3CC(C)(C1)CC(Nc1nc4nonc4nc1O)(C3)C2` [1-82, 6-(((1R,3R,5S,7R)-3,5-dimethyladamantan-1-yl)amino)-[1,2,5]oxadiazolo[3,4-b]pyrazin-5-ol], the EC50 was ≤ 5 µM.

In the case of `Oc1nc2nonc2nc1Nc1ccccc1` [1-52, 6-(Phenylamino)-[1,2,5]oxadiazolo[3,4-b]pyrazin-5-ol], the EC50 was > 20 µM.

As to `Oc1nc2nonc2nc1Nc1ccc(-c2cccc(C(F)(F)F)c2)cc1` [1-110, 6-((3′-(trifluoromethyl)-[1,1′-biphenyl]-4-yl)amino)-[1,2,5]oxadiazolo[3,4-b]pyrazin-5-ol], the EC50 lay in the range of 5 to 20 µM. Consider `Oc1nc2nonc2nc1Nc1cccc(-c2ccc(F)cc2)c1` [1-134, 6-((4′-fluoro-[1,1′-biphenyl]-3-yl)amino)-[1,2,5]oxadiazolo[3,4-b]pyrazin-5-ol], for which the EC50 was ≤ 5 µM.

With `CCCCCCc1ccc(Nc2nc3nonc3nc2O)cc1` [1-72, 6-((4-hexylphenyl)amino)-[1,2,5]oxadiazolo[3,4-b]pyrazin-5-ol], the EC50 was in the range of 5 to 20 µM.

As for `Oc1nc2nonc2nc1Nc1cccc(OCc2ccc(C(F)(F)F)cc2)c1` [1-97, 6-((3-((4-(Trifluoromethyl)benzyl)oxy)phenyl)amino)-[1,2,5]oxadiazolo[3,4-b]pyrazin-5-ol], the EC50 is ≤ 5 µM.

On to `Oc1nc2nonc2nc1Nc1ccc(OCC2CC2)c(C(F)(F)F)c1` [1-92, 6-((4-(cyclopropylmethoxy)-3-(trifluoromethyl)phenyl)amino)-[1,2,5]oxadiazolo[3,4-b]pyrazin-5-ol], for which the EC50 is ≤ 5 µM. Take `COc1ccccc1Nc1nc2nonc2nc1O` [1-94, 6-((2-methoxyphenyl)amino)-[1,2,5]oxadiazolo[3,4-b]pyrazin-5-ol]: the EC50 is > 20 µM. The same measure, in the same setting: to `CCc1ccc(Nc2nc3nonc3nc2O)cc1` [1-61, 6-((4-Ethylphenyl)amino)-[1,2,5]oxadiazolo[3,4-b]pyrazin-5-ol] belongs 5 to 20 µM; to `Oc1nc2nonc2nc1Nc1ccc2c(c1)OC(F)(F)O2` [1-93, 6-((2,2-difluorobenzo[d][1,3]dioxol-5-yl)amino)-[1,2,5]oxadiazolo[3,4-b]pyrazin-5-ol], 5 to 20 µM. The same measure, in the same setting: under `CCc1ccc(Nc2nc3nonc3nc2O)c(F)c1` [1-68, 6-((4-ethyl-2-fluorophenyl)amino)-[1,2,5]oxadiazolo[3,4-b]pyrazin-5-ol] stands 5 to 20 µM; under `Oc1nc2nonc2nc1Nc1ccc(C(F)(F)F)cc1` [1-7, 6-((4-(Trifluoromethyl)phenyl)amino)-[1,2,5]oxadiazolo[3,4-b]pyrazin-5-ol], 5 to 20 µM. For `Oc1nc2nonc2nc1Nc1ccc(OCCCC(F)(F)F)c(F)c1` [1-99, 6-((3-fluoro-4-(4,4,4-trifluorobutoxy)phenyl)amino)-[1,2,5]oxadiazolo[3,4-b]pyrazin-5-ol], the EC50 is ≤ 5 µM.

`Cc1cc(Nc2nc3nonc3nc2O)ccc1OCC(F)(F)F` [1-89, 6-((3-Methyl-4-(2,2,2-trifluoroethoxy)phenyl)amino)-[1,2,5]oxadiazolo[3,4-b]pyrazin-5-ol] registered an EC50 of 5 to 20 µM. Same read-out and setting: to `CC(Nc1nc2nonc2nc1O)C12CC3CC(CC(C3)C1)C2` [1-83, 6-((1-((1S,3S)-adamantan-1-yl)ethyl)amino)-[1,2,5]oxadiazolo[3,4-b]pyrazin-5-ol] belongs 5 to 20 µM; to `Cc1cc(OC(F)(F)F)ccc1Nc1nc2nonc2nc1O` [1-32, 6-((2-Methyl-4-(trifluoromethoxy)phenyl)amino)-[1,2,5]oxadiazolo[3,4-b]pyrazin-5-ol], ≤ 5 µM.

For another assay, the system named is humans.
Assay: not given
As to conditions: patients consuming ~300 mg/d, over several months, without changes in food intake; cited from earlier work.
On to `O=[N+]([O-])c1ccc(O)c([N+](=O)[O-])c1` [DNP, 2,4-dinitrophenol], for which the Average weight loss was 1.5 pounds per week.

A further assay concerns Male C57BL/6J mice on western diet. Description: Diet induced obesity reversal mouse study. The format is in vivo. As to conditions: WD containing 1-112, ~60 mg/kg/day, after 28 days of WD. An excerpt:
FIGS. 2A-2C. Diet induced obesity reversal data, for mice given a regular chow diet, a Western diet, or a Western diet plus compound 1-112. FIG. 2A, Body mass versus time; FIG. 2B, fat mass (measured by EchoMRI) versus time; FIG. 2C, food intake (last 14 days) versus time.
Male C57BL/6J mice aged 3 months were assigned to either normal chow diet (Chow, n=5) or western diet (WD, n=10) for 28 days. After 28 days half of the WD group were switched to WD containing compound 1-112 at a concentration resulting in consumption of ˜60 mg/kg/day 1-112 (1-112 60 mpk). Body mass (A), fat mass (measured by EchoMRI (B)), and food intake (C, for the final 14 days) were recorded as indicated.
As for `Oc1nc2nonc2nc1Nc1ccc(-c2ccc(F)cc2)cc1` [1-112, 6-((4′-fluoro-[1,1′-biphenyl]-4-yl)amino)-[1,2,5]oxadiazolo[3,4-b]pyrazin-5-ol], the Body mass entry is reported as “lost body weight”; the “Fat mass (measured by EchoMRI)” value was “lost body weight and fat mass”.

The assay is the same for the next values; noted with them: WD containing 1-112, ~60 mg/kg/day; final 14 days.
As for `Oc1nc2nonc2nc1Nc1ccc(-c2ccc(F)cc2)cc1` [1-112, 6-((4′-fluoro-[1,1′-biphenyl]-4-yl)amino)-[1,2,5]oxadiazolo[3,4-b]pyrazin-5-ol], the Food intake result is “without a significant change in food intake”.
